{
  "source": "patent US20230270731A1",
  "about": "“THERAPEUTIC COMPOUNDS AND COMPOSITIONS” (eXIthera Pharmaceuticals, Inc., priority 2019, published 2023)",
  "assay_type_in_all_cases": "physicochemical",
  "key": {"[1]": {"experiment": "Equilibrium solubility of Compound 1 in common buffers", "details": "thermodynamic from solid, read-out: Avg. c(Compound 1, FB), equilibrium solubility", "experimental": "The equilibrium solubility of Compound 1 was tested in common buffers (Table 2) at a buffer strength of c(buffer)=200 mM. For this, samples of Compound 1 with c(Compound 1, target)=16 mg/mL were prepared in the different buffer solutions (Table 3), mixed by vortexing and inspected for solid residues. For the cases for which no solid residues were observed the solutions were arbitrarily supplemented with additional solid Compound 1. This process was repeated (hourly observation) until a solid residue remained readily observable. The samples were rotated at room temperature for 24 h.\nThe equilibrium solubility samples were cleared by centrifugation (table top centrifuge, rcf=16,100×g, 10 min). The supernatant was subjected to HPLC analysis and assayed in triplicates for Compound 1 concentration using the HPLC method described in Example 2. The pH of the supernatant was measured (Table 3)."}, "[2]": {"experiment": "Citrate and PBS vehicle formulations: pH, osmolality, concentration and recovery (HPLC)", "experimental": "Two additional vehicles: sodium citrate (50 mM) and PBS (commercial) were formulated at different concentrations (Table 5, Table 6). Both vehicles at any concentration were compounded using the appropriate final sodium hydroxide concentration (0.1 M NaOH stock solution).\nThe PBS vehicle was compounded to two different pH-values while the citrate vehicle was compounded at different concentrations at the same target pH and tested for its stability over the course of 24 h (rt, exclusion from light). To evaluate the potential occurrence of particles from precipitation, a filtration step (0.2 μm micro centrifugal filters) was included at each time point.\nIn case of Sample #27 the amount of HCl (aq.) (0.1 M stock) added instead of the NaOH-solution was mixed with the 10×PBS buffer and added to the aqueous solution of Compound 1 in a single step."}, "[3]": {"experiment": "Compatibility with infusion vehicles (NS, D5W)", "experimental": "The compatibility of the reconstituted Compound 1 formulation with two infusion vehicles, normal saline (NS) and 5% dextrose in water (D5W) was tested after Δt=4 h for two concentration (high/low) at c(Compound 1, target)=0.1 mg/mL and c(Compound 1, target)=1.0 mg/mL and at ambient conditions (Table 10). The average values of % recovery are relative to the dilution of the reconstituted drug product into DI water at to."}, "[4]": {"experiment": "Compatibility with sterilization filters", "experimental": "The feasibility of aseptic processing was evaluated and three different filter materials were tested for compatibility with the reconstituted Compound 1 formulation.\nFilter compatibility of the reconstituted Compound 1 drug product was tested with different filter material (Table 17) composed of polyethersulfone (PES), nylon, and polyvinylidene fluoride (PVDF). For this a volume of Vfilter pass=10 mL was passed through the respective filter and the first as well as the last 10 vol % of the filtered volume were assayed for recovery of Compound 1 (Table 12).\nThe average values of % recovery are relative to the reconstituted drug product that has not been in contact with the tested materials."}, "[5]": {"experiment": "Compatibility with infusion bags", "experimental": "The compatibility of the reconstituted Compound 1 formulation with two infusion bags (different volumes and material) and two IV lines was tested (Table 13) at c(Compound 1)=0.1 mg/mL. After injection of the reconstituted drug product solution into infusion bags filled with NS, the recovery of Compound 1 was measured i) directly after mixing with the infusion vehicle (to, Table 14) and ii) after Δt=[…] of contact time with the infusion bag (Table 15). Additionally, storage in an infusion bag at ambient temperature and lighting conditions was assessed for Δt=6 h (Table 15). The average values of % recovery are relative to the reconstituted drug product that has not been in contact with the tested materials."}, "[6]": {"experiment": "Liquid injectable formulation: compounding, dilution into infusion vehicles, stability", "experimental": "Compounding process for liquid formulations of Compound 1, designed for dilution into infusion vehicles was developed with 3.0 mg/mL of Compound 1 (or 3.13 mg/mL Compound 1 free base equivalent), phosphate buffer solution (PBS), and pH of 6.4-7.2. The compounding process was applied over a wide range of scales (25-500 mL).\nThe compounding of the drug product required a neutralization step using 0.5N sodium hydroxide solution and buffering with PBS to adjust the pH to values compatible with an IV infusion. The compounding process also required a filtration step, which also served as aseptic processing.\nThe compounded formulations were diluted into infusion vehicles: normal saline, 5% dextrose in water (D5W), and lactated Ringer's solution (buffered and unbuffered). The dilution into normal saline was carried out at 100-fold and 600-fold dilution."}, "[7]": {"experiment": "Compatibility with infusion bags", "details": "infus. bag1, t0 (Table 15)"}},
  "note": "Where two headings read alike, the source gives them in different places.",
  "data": [
    {"compound": "C[C@@H](NC(=O)N1C(=O)[C@H](Cc2ccnc(N)c2)[C@H]1C(=O)O)C1CCCCC1", "note": "[Compound 1, (2S,3R)-3-[(2-aminopyridin-4-yl)methyl]-1-{[(1R)-1-cyclohexylethyl]carbamoyl}-4-oxoazetidine-2-carboxylic acid]", "values": [
      {"measurement": "solubility thermodynamic at 24 h", "setting": "[1]; citrate buffer, pH 2.72, aqueous buffer, citric acid/sodium 200 mM, pH (Buffer) 3.00, pH (Meas.) 2.72, room temperature 24 h", "value": 5960, "unit": "µg/mL"},
      {"measurement": "solubility thermodynamic at 24 h", "setting": "[1]; citrate buffer, pH 3.74, aqueous buffer, citric acid/sodium 200 mM, pH (Buffer) 4.00, pH (Meas.) 3.74, room temperature 24 h", "value": 6200, "unit": "µg/mL"},
      {"measurement": "solubility thermodynamic at 24 h", "setting": "[1]; pH 1.29, aqueous buffer, phosphoric acid/sodium phosphate 200 mM, pH (Buffer) 2.00, pH (Meas.) 1.29, room temperature 24 h", "value": 159000, "unit": "µg/mL"},
      {"measurement": "solubility thermodynamic at 24 h", "setting": "[1]; pH 4.57, aqueous buffer, acetic acid/sodium acetate 200 mM, pH (Buffer) 5.00, pH (Meas.) 4.57, room temperature 24 h", "value": 7480, "unit": "µg/mL"},
      {"measurement": "solubility thermodynamic at 24 h", "setting": "[1]; pH 6.33, aqueous buffer, sodium phosphate 200 mM, pH (Buffer) 7.00, pH (Meas.) 6.33, room temperature 24 h", "value": 12000, "unit": "µg/mL"},
      {"measurement": "solubility thermodynamic at 24 h", "setting": "[1]; pH 6.67, aqueous buffer, sodium phosphate 200 mM, pH (Buffer) 8.00, pH (Meas.) 6.67, room temperature 24 h", "value": 15300, "unit": "µg/mL"},
      {"measurement": "Stability of Compound 1 in citrate buffer", "setting": "[2]; 24 h, ambient temperature", "value": "confirmed"},
      {"measurement": "Precipitation of Compound 1", "setting": "[2]; citrate buffer, within 24 h", "value": "not observed"},
      {"measurement": "Avg. c(Compound 1, FB, Obs.)", "setting": "[3]; target 0.1 mg/mL, D5W, t = 4 h, ambient", "value": 0.09, "unit": "mg/mL"},
      {"measurement": "Avg. c(Compound 1, FB, Obs.)", "setting": "[3]; target 0.1 mg/mL, NS, t = 4 h, ambient", "value": 0.09, "unit": "mg/mL"},
      {"measurement": "Avg. c(Compound 1, FB, Obs.)", "setting": "[3]; target 0.1 mg/mL, Water, t0", "value": 0.09, "unit": "mg/mL"},
      {"measurement": "Avg. c(Compound 1, FB, Obs.)", "setting": "[3]; target 0.1 mg/mL, Water, t = 4 h, ambient", "value": 0.09, "unit": "mg/mL"},
      {"measurement": "Avg. c(Compound 1, FB, Obs.)", "setting": "[3]; target 1.0 mg/mL, D5W, t = 4 h, ambient", "value": 0.92, "unit": "mg/mL"},
      {"measurement": "Avg. c(Compound 1, FB, Obs.)", "setting": "[3]; target 1.0 mg/mL, NS, t = 4 h, ambient", "value": 0.92, "unit": "mg/mL"},
      {"measurement": "Avg. c(Compound 1, FB, Obs.)", "setting": "[3]; target 1.0 mg/mL, Water, t0", "value": 0.92, "unit": "mg/mL"},
      {"measurement": "Avg. c(Compound 1, FB, Obs.)", "setting": "[3]; target 1.0 mg/mL, Water, t = 4 h, ambient", "value": 0.92, "unit": "mg/mL"},
      {"measurement": "Avg. c(Compound 1, FB, Obs.)", "setting": "[4]; Nylon filter, first 10% of 10 mL", "value": 0.94, "unit": "mg/mL"},
      {"measurement": "Avg. c(Compound 1, FB, Obs.)", "setting": "[4]; Nylon filter, last 10% of 10 mL", "value": 0.95, "unit": "mg/mL"},
      {"measurement": "Avg. c(Compound 1, FB, Obs.)", "setting": "[4]; PES filter, first 10% of 10 mL", "value": 0.94, "unit": "mg/mL"},
      {"measurement": "Avg. c(Compound 1, FB, Obs.)", "setting": "[4]; PES filter, last 10% of 10 mL", "value": 0.95, "unit": "mg/mL"},
      {"measurement": "Avg. c(Compound 1, FB, Obs.)", "setting": "[4]; PVDF filter, first 10% of 10 mL", "value": 0.95, "unit": "mg/mL"},
      {"measurement": "Avg. c(Compound 1, FB, Obs.)", "setting": "[4]; PVDF filter, last 10% of 10 mL", "value": 0.95, "unit": "mg/mL"},
      {"measurement": "Avg. c(Compound 1, FB, Obs.)", "setting": "[4]; Sample Soln. (pre-filtration)", "value": 0.95, "unit": "mg/mL"},
      {"measurement": "back-pressure during filtration", "setting": "[4]; any of the tested filters", "value": "No increase"},
      {"measurement": "Avg. c(Compound 1, FB, Obs.)", "setting": "[5]; Sample soln. (water), no contact with bags", "value": 0.09, "unit": "mg/mL"},
      {"measurement": "Avg. c(Compound 1, FB, Obs.)", "setting": "[5]; infus. bag1 (500 mL Viaflo, NS), t0, vs sample soln.", "value": 0.09, "unit": "mg/mL"},
      {"measurement": "Avg. c(Compound 1, FB, Obs.)", "setting": "[5]; infus. bag1, t = 10 min", "value": 0.09, "unit": "mg/mL"},
      {"measurement": "Avg. c(Compound 1, FB, Obs.)", "setting": "[5]; infus. bag1, t = 6 h, ambient", "value": 0.09, "unit": "mg/mL"},
      {"measurement": "Avg. c(Compound 1, FB, Obs.)", "setting": "[5]; infus. bag2 (50 mL Viaflex, NS), t0, vs sample soln.", "value": 0.08, "unit": "mg/mL"},
      {"measurement": "Avg. c(Compound 1, FB, Obs.)", "setting": "[5]; infus. bag2, t = 10 min", "value": 0.08, "unit": "mg/mL"},
      {"measurement": "Avg. c(Compound 1, FB, Obs.)", "setting": "[5]; infus. bag2, t = 6 h, ambient", "value": 0.08, "unit": "mg/mL"},
      {"measurement": "adsorption of Compound 1 to infusion bag material", "setting": "[5]; infusion bag #1 (Viaflo) compared with infusion bag #2 (Viaflex), immediately after contact", "value": "lesser extent of Compound 1 adsorption"},
      {"measurement": "pH over time", "setting": "[6]; diluted into normal saline, 0.03 mg/mL, ambient, 48 hours", "value": "constant"},
      {"measurement": "purity over time", "setting": "[6]; diluted into normal saline, 0.03 mg/mL, ambient, over 48 hours", "value": "unchanged"},
      {"measurement": "time stable at ambient temperature", "setting": "[6]; formulation diluted into normal saline, 0.03 mg/mL", "value": "at least 48 hours"},
      {"measurement": "loss of Compound 1 in filtration step of compounding", "setting": "[6]; liquid formulation 3.0 mg/mL, PBS, pH 6.4-7.2", "value": "minimal loss or no loss"},
      {"measurement": "nominal degradation", "setting": "[6]; liquid formulations, 2-8° C., at least one week", "value": "< 4", "unit": "%"},
      {"measurement": "Avg. c(Compound 1, FB, Obs.)", "setting": "[7]", "value": 0.09, "unit": "mg/mL"}
    ]}
  ]
}
